# Laboratory results: US20160175401A1, “COMPOITIONS AND METHODS FOR MODULATING THERMOGENESIS USING PTH-RELATED AND EGF-RELATED COMPOUNDS” (DANA-FARBER CANCER INSTITUTE INC., priority 2013, published 2016)
# Columns and labels:
# Type in all cases: cell-based, mouse
# primary white adipocytes [1] = assay: Thermogenic gene expression (qRT-PCR) in primary white adipocytes; settings: for thermogenic effects (thermogenic gene expression): 1 μg/ml, 4 hours, primary white adipocytes (FIG. 8A-8C)
# Procedure: Inguinal SV fractions were obtained from 30-35 days-old male mice by the following procedure. Inguinal fat tissue was dissected, washed with PBS, minced and digested for 45 min at 37° C. in PBS containing 10 mM CaCl, 2.4 U/mL dispase II (Roche), and 1.5 U/mL collagenase D (Roche). Digested tissue was filtered through a 100-μm cell strainer and centrifuged at 600 g for 5 min to pellet the SV cells which were then resuspended in SV culture medium (DMEM/F12 [1:1; Invitrogen] plus glutamax, pen/strep, and 10% FBS), filtered through a 40-μm cell strainer, centrifugation as above, resuspended in SV culture medium and plated. SV cells were grown to confluency for adipocyte differentiation which was induced by the adipogenic cocktail containing 1 μM dexamethasone, 5 μg/mL insulin, […] isobutylmethylxanthine (DMI), and 1 μM rosiglitazone in SV culture medium. 2 days after induction, cells were maintained in SV culture medium containing 5 μg/mL insulin and 1 μM rosiglitazone. Starting at day 6, cells were maintained in SV culture medium only and treated with various molecules for […] and harvested at day 8.
# LLC cells were maintained in DMEM (Invitrogen) with 10% FBS and pen/strep. For conditioned media collection, cells were plated at ⅓ confluency. The following day, medium is changed to FreeStyle expression medium (Invitrogen) which was collected 24 hours later. For concentration of expression medium, LLC conditioned media was filtered using a 3 kilodalton (Kd) cut-off filter (Millipore). Adipocytes were maintained in SV culture media (DMEM/F12 [1:1; Invitrogen] plus glutamax, pen/strep, and 10% FBS) and conditioned media treatment experiments were performed 7 days post-differentiation. When adipocytes were treated with conditioned media for 24 hours, the treatment media were composed of 50% SV culturing medium and 50% LLC conditioned media. When conditioned medium was filtered and concentrated, adipocytes were exposed to 90% SV culturing medium and 10% concentrated LLC conditioned media.
# (§1) RNA was extracted from cultured cells or frozen tissue samples using TRIzol (Invitrogen), purified with Qiagen RNAeasy minicolums and reverse transcribed using High Capacity cDNA Reverse Transcription kit (Applied Biosystems). Resulting cDNA was analyzed by RT-qPCR. Briefly, 25 ng of cDNA and […] of each primer were mixed with SYBR® GreenER™ PCR Master Mix (Invitrogen). Reactions were performed in 384-well format using an ABI PRISM® 7900HT instrument (Applied Biosystems). Relative mRNA levels were calculated using the comparative CT method normalized to cyclophilin.
# Inguinal stroma-vascular fractions were obtained from 30-35-day-old male mice using the following procedure: Inguinal fat tissue was dissected, washed with PBS, minced and digested for 45 min at 37° C. in PBS containing 10 mM CaCl2, 2.4 Uml^−1 dispase 11 (Roche) and 1.5 U ml^−1 collagenaseD (Roche). Digested tissue was filtered through a 100-μm cell strainer and centrifuged at 600 g for 5 min to pellet the stroma-vascular cells. The pellets were then resuspended in adipocyte culture medium (DMEM/F2 (1:1, Invitrogen) plus GlutaMAX, penicillin and streptomycin, and 10% FBS), filtered through a 40-μm cell strainer, centrifuged as above, resuspended in adipocyte culture medium and plated. The stroma-vascular cells were grown to confluence for adipocyte differentiation, which was induced by an adipogenic cocktail containing 1 μM dexamethasone, 5 μg ml^−1 insulin, […] isobutylmethylxanthine (DMI) and 1 μM rosiglitazone in adipocyte culture medium. Two days after induction, cells were maintained in adipocyte culture medium containing 5 μg ml^−1 insulin and 1 μM rosiglitazone. Starting on day 6, cells were maintained in adipocyte culture medium only and treated with various molecules for 2-24 h and harvested on day 8.
# LLC cells were maintained in DMEM (Invitrogen) with 10% FBS, and penicillin and streptomycin. For conditioned medium collection, cells were plated at a 1:3 confluence.
# primary brown adipocytes = assay: Thermogenic gene expression (qRT-PCR) in primary brown adipocytes
# Procedure: as §1
# UCP1 = UCP1 protein levels by western blotting in primary adipocytes
# Procedure: Cells were homogenized in a lysis buffer containing 50 mM Tris (pH 7.4), 500 mM NaCl, 1% NP40, 20% glycerol, 5 mM EDTA and 1 mM PMSF, supplemented with protease and phosphatase inhibitor cocktails (Roche). The homogenates were centrifuges at 13,000 rpm for 10 min and the supernatants were used as whole cell lysates. Protein concentration was determined by Bio-Rad Bradford assay and 50 μg of proteins were used in each SDS-PAGE run. PVDF membrane was blotted with UCP1 antibody (Abeam) in TBS containing 0.05% Tween and 5% BSA. For secondary antibody incubation, TBS-T containing 5% milk was used. ECL western blotting substrates from Pierce were used for visualization of the results.
# Cells were homogenized in a lysis buffer containing 50 mMTris (pH 7.4), 500 mM NaCl, 1% NP40, 20% glycerol, 5 mM EDTA and 1 mM phenylmethylsulphonyl fluoride (PMSF) supplemented with protease and phosphatase inhibitor cocktails (Roche). The homogenates were centrifuged at 13,000 r.p.m. for 10 min, and the supernatants were used as whole-cell lysates. Protein concentration was determined by Bio-Rad protein assay, and […] protein lysate was separated in each SDS-PAGE lane. The separated proteins were transferred to a polyvinylidene difluoride (PVDF)membrane, which was blotted with antibodies in TBS containing 0.05% Tween (TBS-T) and 5% BSA. For secondary antibody incubation. TBS-T containing 5% milk was used. Enhanced chemiluminescence (ECL) western blotting substrates (Pierce) were used for visualization of the results.
# primary white adipocytes [2] = assay: Cellular oxygen consumption rate (XF24 Extracellular Flux Analyzer, Seahorse) of primary adipocytes; settings: for uncoupled respiration and maximal respiration potential: 24 hour treatment, norepinephrine 100 nM, peptides 100 ng/mL, SeaHorse (FIG. 8D)
# Procedure: The cellular oxygen consumption rate (OCR) of primary adipocytes was determined using an XF24 Extracellular Flux Analyzer (Seahorse Bioscience). […] Twenty-four hours later, adipocyte culture medium was changed to DMEM lacking NaHCO3 but containing 10 mM glucose, 1 mM pyruvate and the treatment chemicals. The uncoupled and maximal OCRs were determined using […] (carbonyl cyanide p-trifluoromethoxyphenylhydrazone), respectively. Complex-1-dependent respiration was inhibited with 3 μM rotenone. Ex vivo tissue respiration was measured using a Clark electrode (Strathkelvin Instruments) as described in Cohen et al. (2014) Cell 156:304-316. Freshly isolated tissues were briefly minced and transferred to the electrode chamber containing a respiration buffer consisting of 1×DPBS (Delbecco's phosphate-buffered saline), 2% BSA, 25 mM glucose and 1 mM pyruvate. Oxygen consumption values were normalized to tissue weight.
substance,measurement,setting,value
"PTH (1-34): Synthetic peptide rat PTH(1-34) (Ala32-Phe65; Catalog No. H-5460), purchased from Bachem",thermogenic gene expression,"primary white adipocytes [1]; 100 ng ml^−1 peptide, 2 h, primary white adipocytes (FIG. 21B)",stimulated thermogenic gene expression
same,thermogenic effects (thermogenic gene expression),primary white adipocytes [1],thermogenic effects
same,thermogenic effects (thermogenic gene expression),primary white adipocytes [1]; listed as PTH,powerful inducers of thermogenic gene expression
same,thermogenic gene expression,"primary brown adipocytes; 100 ng ml^−1 peptide, 2 h, primary brown adipocytes (FIG. 20D)",stimulated thermogenic gene expression
same,thermogenic effects (thermogenic gene expression),"primary brown adipocytes; 1 μg/ml, primary brown adipocytes (FIG. 9A)",thermogenic effects
same,UCP1 protein levels,"UCP1; 100 nM NE, 100 ng ml^−1 PTHrP or PTH, 24 h, primary white and brown adipocytes (FIG. 23A-23B)",comparably increased UCP1 protein levels
same,UCP1 protein levels,"UCP1; 24 hour treatment, norepinephrine 100 nM, peptides 100 ng/mL, western blotting (FIG. 8D)",significantly increased
same,"oxygen consumption, including basal, uncoupled and maximal respiration","primary white adipocytes [2]; 100 nM NE, 100 ng ml^−1 PTHrP or PTH, 24 h (FIG. 23C)",significantly raised oxygen consumption
same,uncoupled respiration and maximal respiration potential,primary white adipocytes [2],significantly elevate
same,uncoupled respiration and maximal respiration potential,primary white adipocytes [2]; listed as PTH,powerful inducers
